Read-outs that look alike come from different tables or passages of the source.
Assays:
[1] = target: GDP-bound KRAS wild-type protein (Homo sapiens, UniProt P01116); assay: Binding to KRAS by surface plasmon resonance (SPR), dissociation constant KD
Procedure, shortened: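 SPR, 30°C: Avi-biotin RAS·GDP captured via Biotin CAPture (~100–300 RU); running buffer HBS pH 7.4, 1 mM DTT, 10 mM MgCl2, 0.01% Tween 20, 10 µM GDP, 4% DMSO. Single-cycle kinetics, 100 µL/min, 75 s injections; 1:1 model → KD.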

[2] = target: GDP-bound NRAS wild-type protein (Homo sapiens, UniProt P01111); assay: Binding to NRAS by surface plasmon resonance (SPR), KD and KD ratio to KRAS
Procedure, shortened: (§1)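 Compound binding is evaluated by SPR single-cycle kinetics, with concentrations added intermittently from low to high for 75 s each. Target surfaces carry GDP-loaded biotinylated Avi-RAS at about 100–300 RU, regenerated after each cycle; temperature 30°C. A 1:1 binding model gives KD.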

[3] = target: HRAS wild-type protein (Homo sapiens, UniProt P01112); assay: Binding to HRAS by surface plasmon resonance (SPR), KD and KD ratio to KRAS
Procedure, shortened: as §1

[4] = tested on: human lung cancer strain NCI-H441; assay: NCI-H441 cell proliferation inhibitory activity (CellTiter-Glo, 4 days); format: cell-based; details: read-out: NCl-H441 IC50
Procedure, shortened: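 Proliferation was scored by […] measured after the reagent was added to cultures kept at 37°C in 5% carbon dioxide.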

[5] = ratio of KD for GDP-bound NRAS wild-type protein to KD for KRAS
[6] = ratio of KD for HRAS wild-type protein to KD for KRAS
[7] = Single Cycle Kinetics, 1:1 binding model
[8] = ratio of KD with respect to GDP-bound NRAS wild-type protein to KD with respect to KRAS
[9] = ratio of KD with respect to HRAS wild-type protein to KD with respect to KRAS
[10] = 50% proliferation inhibitory concentration, four days

GDP-bound KRAS wild-type protein, sequence (P01116 1-188 isoform P01116-2): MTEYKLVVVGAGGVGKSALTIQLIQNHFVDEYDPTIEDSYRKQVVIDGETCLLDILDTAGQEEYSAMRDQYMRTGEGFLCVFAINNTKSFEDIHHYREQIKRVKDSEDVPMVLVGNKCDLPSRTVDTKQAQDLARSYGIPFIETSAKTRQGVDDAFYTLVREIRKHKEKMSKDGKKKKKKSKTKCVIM
HRAS wild-type protein, sequence (P01112 whole entry): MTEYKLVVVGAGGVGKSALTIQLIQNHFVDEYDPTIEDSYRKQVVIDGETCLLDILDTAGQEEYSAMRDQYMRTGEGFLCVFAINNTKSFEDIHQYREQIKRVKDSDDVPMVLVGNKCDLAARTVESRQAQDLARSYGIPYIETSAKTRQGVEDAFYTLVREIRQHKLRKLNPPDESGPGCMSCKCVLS
GDP-bound NRAS wild-type protein, sequence (P01111 whole entry): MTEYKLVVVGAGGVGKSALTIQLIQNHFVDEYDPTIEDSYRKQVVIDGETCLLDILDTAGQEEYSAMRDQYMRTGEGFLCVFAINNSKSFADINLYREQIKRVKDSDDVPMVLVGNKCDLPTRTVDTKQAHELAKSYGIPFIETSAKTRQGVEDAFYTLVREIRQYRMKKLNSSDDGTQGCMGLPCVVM

| Kd ([1]; Single Cycle Kinetics) [nM] | IC50 ([4]; NCI-H441 cells, 4 days) [nM] | Kd [1, 7] [nM] | IC50 [4, 10] [nM] | Kd ([1]; 1:1 binding model) [nM] | Compound | NRAS /KRAS [2, 5] | HRAS /KRAS [3, 6] | NRAS /KRAS [2, 8] | HRAS /KRAS [3, 9] |
| --- | --- | --- | --- | --- | --- | --- | --- | --- | --- |
| 0.25 | 12.9 | – | – | – | CCC[C@H]1C(=O)N[C@@H]([C@@H](C)CC)C(=O)N(C)CC(=O)N(C)[C@H]2C/C=C\CCN(C2=O)[C@@H](Cc2ccc(C(F)(F)F)cc2)C(=O)N(C)CC(=O)N[C@@H](CCc2ccc(C(F)(F)F)c(Cl)c2)C(=O)N2CC3(CC3)C[C@H]2C(=O)NC2(CCC2)C(=O)N(C)[C@@H]([C@@H](C)CC)C(=O)N(C)[C@H](C(=O)N(C)C)CC(=O)N1C [PP3416] | AA (a compound having 20 or more is denoted as AA) | A (a compound having 10 or more and less than 20 is denoted as A) | – | – |
| – | 125 | – | – | 1.7 | CCC(CC)[C@H]1C(=O)N(C)[C@H](C(=O)N(C)C)CC(=O)N(C)[C@@H](CC2CC2)C(=O)N[C@@H]([C@@H](C)CC)C(=O)N(C)CC(=O)N(C)[C@H]2C/C=C\CCN(C2=O)[C@@H](CC2CCC(F)(F)CC2)C(=O)N(C)CC(=O)N[C@@H](CCc2cc(F)c(C(F)(F)F)c(F)c2)C(=O)N2C[C@@H](C)C[C@H]2C(=O)NC2(CC(C)(C)C2)C(=O)N1C [PP2500] | A (a compound having 10 or more and less than 20 is denoted as A) | A (a compound having 10 or more and less than 20 is denoted as A) | – | – |
| – | – | 0.06 | 3.7 | – | CCO[C@@H]1C[C@H]2C(=O)NC3(CCC3)C(=O)N(C)[C@@H](C3CCCC3)C(=O)N(C)[C@H](C(=O)N(C)C)CC(=O)N(C)[C@@H](CC(C)C)C(=O)N[C@@H]([C@@H](C)CC)C(=O)N(C)CC(=O)N(C)[C@H]3C/C=C\CCN(C3=O)[C@@H](Cc3ccc(C(F)(F)F)cc3)C(=O)N(C)CC(=O)N[C@@H](CCc3ccc(C(F)(F)F)c(OC)c3)C(=O)N2C1 [PP1245] | – | – | A (a compound having 10 or more and less than 20 is denoted as A) | B (a compound having 3 or more and less than 10 is denoted as B) |

The remaining lines, values behind:

| Compound | Kd ([1]; Single Cycle Kinetics) [nM] | IC50 ([4]; NCI-H441 cells, 4 days) [nM] | Kd [1, 7] [nM] | IC50 [4, 10] [nM] | Kd ([1]; 1:1 binding model) [nM] | NRAS /KRAS [2, 5] | HRAS /KRAS [3, 6] | NRAS /KRAS [2, 8] | HRAS /KRAS [3, 9] |
| --- | --- | --- | --- | --- | --- | --- | --- | --- | --- |
| CCC[C@H]1C(=O)N[C@@H]([C@@H](C)CC)C(=O)N2CCC[C@H]2C(=O)N(C)[C@H]2C/C=C\CCN(C2=O)[C@@H](Cc2ccc(C)cc2)C(=O)N(C)CC(=O)N[C@@H](CCc2ccc(C(F)(F)F)c(Cl)c2)C(=O)N2CC[C@H](OC)[C@H]2C(=O)N(C)C2(CCC2)C(=O)N(C)[C@@H](C2CCCC2)C(=O)N(C)[C@H](C(=O)N(C)C)CC(=O)N1C [PP3235] | 0.21 | 7 | – | – | – | A (a compound having 10 or more and less than 20 is denoted as A) | A (a compound having 10 or more and less than 20 is denoted as A) | – | – |
| CC[C@H](C)[C@@H]1NC(=O)[C@H](CC)N(C)C(=O)C[C@@H](C(=O)N2CCOCC2)N(C)C(=O)[C@H](C2CCCC2)N(C)C(=O)C2(CCCC2)NC(=O)[C@@H]2CCCN2C(=O)[C@H](CCc2cc(F)c(C(F)(F)F)c(F)c2)NC(=O)CN(C)C(=O)[C@H](Cc2ccc(C(F)(F)F)cc2)N2C[C@H](C)[C@H](C)C[C@@H](C2=O)N(C)C(=O)CN(C)C1=O [PP1365] | – | – | 0.13 | 4.2 | – | – | – | A (a compound having 10 or more and less than 20 is denoted as A) | B (a compound having 3 or more and less than 10 is denoted as B) |
| C#CC[C@H]1C(=O)N[C@@H]([C@@H](C)CC)C(=O)N2CCC[C@H]2C(=O)N(C)[C@H]2C/C=C\CCN(C2=O)[C@@H](Cc2ccc(C(F)(F)F)cc2)C(=O)N(C)CC(=O)N[C@@H](CCc2ccc(C(F)(F)F)c(Cl)c2)C(=O)N2C[C@H](OCC)C[C@H]2C(=O)N(C)C2(CCC2)C(=O)N(C)[C@@H](C2CCCC2)C(=O)N(C)[C@H](C(=O)N(C)C)CC(=O)N1C [PP3254] | 0.086 | 3.6 | – | – | – | A (a compound having 10 or more and less than 20 is denoted as A) | B (a compound having 3 or more and less than 10 is denoted as B) | – | – |

— patent EP4603105A1, “PHARMACEUTICAL COMPOSITION CONTAINING CYCLIC COMPOUND HAVING SELECTIVE KRAS INHIBITORY EFFECT AGAINST HRAS AND NRAS” (CHUGAI SEIYAKU KABUSHIKI KAISHA, priority 2022, dated 2024)
